Experimental data published in publication PMC6009956, “Design, synthesis and biological activity of N^4-phenylsubstituted-7H-pyrrolo[2,3-d]pyrimidin-4-amines as dual inhibitors of aurora kinase A and epidermal growth factor receptor kinase” (Journal of Enzyme Inhibition and Medicinal Chemistry, 2017).
Like-named read-outs stand apart in the source and are kept apart here.

Tests used:
SAS cells [1] = assay: Cell killing, PI staining and FACS, SAS; type: cell-based; details: 100 µM, 72 h
Method: (§1) FADU, BHY, SAS and CAL cell lines were obtained from ATCC-LGC and were cultured in DMEM (Invitrogen, Germany) supplemented with 10% of heat activated bovine serum (FBS, PAA, Germany), 1% of glutamine, 1% of penicillin-streptomycin (Invitrogen, Germany). To measure proliferation, SCCHN cells were split, reseeded (5 × 10^5 in 25 cm^2 flasks) and counted at the indicated time points. Cells were then replated at the initial density. The fold increase in cell number was calculated, all given results are based on triplicate experiments. To assess cell death 5 × 10^5 cells were stained with propidium iodide (PI, Sigma, Germany). Following incubation, cells were washed, resuspended in PBS, and analysed by flow cytometry. The fraction of PI-positive cells is reported as dead cell fraction.
(§2) Figure 3. […] Cells were incubated with compound 2 for 48 h and then subjected to PI staining and FACS analysis. PI-positive cell fraction as measure of cell death is reported. (B) Four SCCHN cell lines were incubated with 100 μM of compound 2 and counted on the indicated days. Experiments in triplicates, fold growth shown. (C) EGFR expression of SCCHN cell lines. EGFR high and low as detected by western blot analysis (D) The SCCHN cell lines were incubated with 100 μM of compound 2 for 72 h. Percent PI positive cells are given. Experiments in triplicates.

BHY cells = assay: Proliferation (cell counting), BHY; type: cell-based; details: 100 µM
Method: as §1, §2

[2] = tested on: EGFR (pEGFR, pERK, p-AKT) in BHY cells; assay: Western blot of EGFR downstream targets in BHY cells; type: cell-based; details: 100 μM
Method: Protein extracts (50 μg per lane) were electrophoretically separated on SDS-PAGE gels, transferred to membranes (Protran, Schleicher & Schuell, Dassel, Germany) and blotted with specific antibodies (actin, aurora A, aurora B: all from Sigma, Munich, Germany; S10-HH3: Millipore, Schwalbach, Germany; EGFR: Santa Cruz, Heidelberg, Germany; pEGFR: Invitrogen, Darmstadt, Germany; pAKT, pERK: both from New England Biolabs, Frankfurt, Germany).
Figure 4. Effects of compound 2 on EGFR and aurora kinases in growing SCCHN cell lines (A) Western blot analysis of EGFR (pEGFR, pERK, p-AKT) and aurora A (p-HH3) downstream target proteins following incubation with 100 μM compound 2 for the indicated time points in BHY and FADU SCCHN cell lines. (B) BHY and CAL cell lines treated for the indicated time points with 200 nM cetuximab. Western blot analysis of EGFR downstream targets. (long exposure and short exposure). […] Western blot analysis of p-HH3 at the indicated time points. Asterisk (*) represents unspecific band.

EGFR = EGFR (Homo sapiens, UniProt P00533); assay: ADP-Glo kinase assay, EGFR; type: biochemical; parameters: purchased BPS Bioscience (assay run externally by the vendor)
Chain of EGFR (P00533 25-1210): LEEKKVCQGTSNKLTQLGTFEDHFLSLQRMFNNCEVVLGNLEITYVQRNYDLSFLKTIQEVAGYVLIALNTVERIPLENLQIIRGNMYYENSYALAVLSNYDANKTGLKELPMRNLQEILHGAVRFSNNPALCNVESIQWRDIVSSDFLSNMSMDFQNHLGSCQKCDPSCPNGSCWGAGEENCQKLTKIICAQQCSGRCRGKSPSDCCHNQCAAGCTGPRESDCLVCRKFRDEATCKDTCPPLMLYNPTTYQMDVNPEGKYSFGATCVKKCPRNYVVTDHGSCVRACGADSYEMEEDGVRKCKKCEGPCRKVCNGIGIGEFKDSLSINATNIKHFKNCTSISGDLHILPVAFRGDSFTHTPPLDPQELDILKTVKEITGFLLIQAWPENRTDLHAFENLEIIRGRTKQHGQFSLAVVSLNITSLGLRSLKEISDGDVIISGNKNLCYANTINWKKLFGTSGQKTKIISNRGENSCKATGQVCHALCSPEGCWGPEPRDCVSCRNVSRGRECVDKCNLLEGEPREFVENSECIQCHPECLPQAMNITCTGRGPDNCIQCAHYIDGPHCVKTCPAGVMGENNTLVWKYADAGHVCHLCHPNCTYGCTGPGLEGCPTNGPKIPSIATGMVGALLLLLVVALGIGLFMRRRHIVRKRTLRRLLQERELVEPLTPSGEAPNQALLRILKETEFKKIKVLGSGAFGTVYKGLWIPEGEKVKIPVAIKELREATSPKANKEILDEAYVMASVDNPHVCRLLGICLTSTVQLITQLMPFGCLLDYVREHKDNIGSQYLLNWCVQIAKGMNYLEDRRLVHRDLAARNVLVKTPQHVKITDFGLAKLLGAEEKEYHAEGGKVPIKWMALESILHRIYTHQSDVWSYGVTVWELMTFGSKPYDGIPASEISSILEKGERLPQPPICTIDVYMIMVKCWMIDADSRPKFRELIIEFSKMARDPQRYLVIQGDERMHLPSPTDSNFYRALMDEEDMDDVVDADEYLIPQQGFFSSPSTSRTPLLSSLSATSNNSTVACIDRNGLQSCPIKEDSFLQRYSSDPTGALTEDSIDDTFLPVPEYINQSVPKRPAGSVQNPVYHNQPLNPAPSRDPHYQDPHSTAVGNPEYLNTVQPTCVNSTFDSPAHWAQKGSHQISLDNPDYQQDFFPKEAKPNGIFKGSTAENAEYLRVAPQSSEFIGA

FADU cells [3] = assay: Proliferation (cell counting), FADU; type: cell-based; details: 100 µM
Method: as §1, §2

FADU cells [4] = assay: Cell killing, PI staining and FACS, FADU; type: cell-based
Method: as §1, §2

SAS cells [5] = assay: Proliferation (cell counting), SAS; type: cell-based; details: 100 µM
Method: as §1, §2

CAL cells [6] = assay: Cell killing, PI staining and FACS, CAL; type: cell-based; details: 100 µM, 72 h
Method: as §1, §2

CAL cells [7] = assay: Proliferation (cell counting), CAL; type: cell-based; details: 100 µM
Method: as §1, §2

FADU and BHY cell lines = assay: Cell cycle analysis (PI, flow cytometry); type: cell-based; details: 100 μM, 24 and 48 h; more pronounced in BHY
Method: For analysis of cell cycle distribution, cells were fixed with 70% of ethanol and stained with PI. Flow cytometric analysis of DNA content was performed using PI in the FL2 chanel in linear mode. Cells with less than diploid DNA content were considered dead (sub-G1).
Figure 5. Cell cycle analysis of FADU and BHY cell lines incubated for 24 and 48 h with 100 μM of compound 2. Cell cycle distribution according to PI uptake, shown is the cell fraction subG1 for cell death and in G1, S and G2M phase of the cell cycle. n = 3, * p < .01, ** p < .001.

EGFR inhibition (in words) (EGFR): single-digit nanomolar EGFR inhibition | IC50 (EGFR; 10 µM ATP, triplicate, read-out: EGFR IC50 ± SD): 3.76 ± 0.12 nM | IC50 (EGFR; 10 µM ATP/0.2 mg/ml Poly-Glu-Tyr, read-out: EGFR IC50 (dose-response curve, supplement)): 3.8 nM | EGFR % Activity Set1 (EGFR; Log[nM] 0): 43% | EGFR % Activity Set2 (EGFR; Log[nM] 0): 41% | EGFR % Activity Set3 (EGFR; Log[nM] 0): 41% | EGFR % Activity Set1 (EGFR; Log[nM] 1.0): 29% | EGFR % Activity Set2 (EGFR; Log[nM] 1.0): 29% | EGFR % Activity Set3 (EGFR; Log[nM] 1.0): 28% | EGFR % Activity Set1 (EGFR; Log[nM] 1.5): 11% | EGFR % Activity Set2 (EGFR; Log[nM] 1.5): 9% | EGFR % Activity Set3 (EGFR; Log[nM] 1.5): 11% | EGFR % Activity Set1 (EGFR; Log[nM] 2.0): 6% | EGFR % Activity Set2 (EGFR; Log[nM] 2.0): 6% | EGFR % Activity Set3 (EGFR; Log[nM] 2.0): 6% | EGFR % Activity Set1 (EGFR; Log[nM] 2.5): 3% | EGFR % Activity Set2 (EGFR; Log[nM] 2.5): 2% | EGFR % Activity Set3 (EGFR; Log[nM] 2.5): 3% | EGFR % Activity Set1 (EGFR; Log[nM] 3.0): 1% | EGFR % Activity Set2 (EGFR; Log[nM] 3.0): 1% | EGFR % Activity Set3 (EGFR; Log[nM] 3.0): 1% | EGFR % Activity Set1 (EGFR; Log[nM] 3.5): 1% | EGFR % Activity Set2 (EGFR; Log[nM] 3.5): 1% | EGFR % Activity Set3 (EGFR; Log[nM] 3.5): 0% | EGFR % Activity Set1 (EGFR; Log[nM] 4.0): 0% | EGFR % Activity Set2 (EGFR; Log[nM] 4.0): 0% | EGFR % Activity Set3 (EGFR; Log[nM] 4.0): 0% | EGFR % Activity Set1 (EGFR; Log[nM] 4.5): 0% | EGFR % Activity Set2 (EGFR; Log[nM] 4.5): 0% | EGFR % Activity Set3 (EGFR; Log[nM] 4.5): 0% | EGFR % Activity Set1 (EGFR; Log[nM] 5.0): 0% | EGFR % Activity Set2 (EGFR; Log[nM] 5.0): 0% | EGFR % Activity Set3 (EGFR; Log[nM] 5.0): 0%
Structure (SMILES): Brc1cccc(Nc2ncnc3[nH]ccc23)c1 [Compound 2, N^4-(3-bromophenyl)-7H-pyrrolo[2,3-d]pyrimidine-4-amine]
Cell killing (PI positive cells) (SAS cells [1]): efficient cell killing | Cell growth (fold growth) (BHY cells): completely inhibited cell growth | EGFR-mediated phosphorylation steps (pEGFR, pERK, p-AKT) [2]: modified | Cell growth (fold growth) (FADU cells [3]): completely inhibited cell growth | Cell killing (PI positive cells) (FADU cells [4]; FADU, 100 µM, 72 h): efficient cell killing | IC50 (FADU cells [4]; Homo sapiens, FaDu, 48 h, read-out: IC50 cellular killing (PI-positive fraction)): 150000 nM | Cell growth (fold growth) (SAS cells [5]): completely inhibited cell growth | Cell killing (PI positive cells) (CAL cells [6]): efficient cell killing | Cell growth (fold growth) (CAL cells [7]): completely inhibited cell growth | Cell cycle distribution (FADU and BHY cell lines): cell cycle arrest in G2M
